Data set [1] concerns protein kinases of CHO cells (P42 MAPK (ERK 2)). In words: In-gel kinase assay in the presence of MBP. In kind it is cell-based, Chinese hamster. Conditions: 2 μM for 2 and 5 minutes (FIG. 6). On the procedure: Phosphorylated cell proteins were separated by SDS-PAGE using a gel that was copolymerized with MBP (0.5 mg/ml) and treated as described (Karunuguran et al., EMBO J. 15:254-264, 1996). After electrophoresis, the gel was fixed with isopropanol and denatured using 6M Urea. Renaturation was achieved by gradual removal of the excess of urea followed by extensive washings in a renaturing buffer (16 h, 4° C.) and in a buffer containing […] HEPES pH 7.6, and 20 mM MgCl2 (30 min, 30° C.). The gel was then subjected to phosphorylation in a buffer containing 20 mM HEPES pH 7.6, 20 mM MgCl2, 2 mM DTT, 20 μM ATP and […] [y^32P]-ATP (30° C. for 120 min). Finally the gel was extensively washed, dried, and subjected to autoradiography.
(§1) The in-gel kinase assay in the presence of MBP was applied as described in Materials and Methods above to detect stimulation of protein kinases by the cyclic phosphates. CHO cells were treated either with medium (0 control), or with 2 μM, α GP or β GP for 2 minutes, 2 μM […] for 2 and 5 minutes and […] 1,3-cPP for 2 minutes after which the cells were lysed and analyzed.

Another data set relates to Raf1/MAPK cascade. Put plainly: Immunoprecipitation kinase assays (Raf-1, MAPK). In kind it is cell-based, Chinese hamster. Conditions: CHO cells, 2 μM for 2 and 5 minutes (FIG. 6). On the procedure:
(§2) (v) Immunoprecipitation kinase assays. Raf-1 Activity was determined by immunoprecipitation with anti-Raf-1 C terminus antibodies (Santa Cruz Biotech, CA) using recombinant MEK1 as a substrate as previously described (Seger, 1994). Mitogen-activated protein kinase (MAPK) activity was determined by immunoprecipitation with anti-ERK2 C terminus antibodies (Santa Cruz Biotech, CA) using MBP as a substrate (Seger, 1994). Jun N-terminal kinase (JNK) activity was determined by purifying the JNK on a GST-Jun (1-97) column followed by phosphorylation (Hibi, 1993).
as §1
(§3) Their apparent molecular weights were around MW of 35-40, 55 and 62 kD. The 35-40 kD protein kinase which was activated by 1,3-cGP (E) could be assigned to the P42 MAPK (ERK 2). In addition, cells were treated as described above and then subjected to Raf-1, MAPK and IP kinase assays and these are presented in the first and second rows of FIG. 6. In parallel, JNK assay was performed (third row, […]).

The test system of data set [2] is Jun N-terminal kinase (JNK). Put plainly: JNK assay (GST-Jun substrate). The following applies: CHO cells, 2 μM for 2 and 5 minutes (FIG. 6). In kind it is cell-based, Chinese hamster. On the procedure: as §2, §3
A further data set deals with cell lysate phosphatases. Put plainly: Inhibition of phosphatase activity of cell lysate (PNPP substrate). In kind it is biochemical. Conditions: 50 μM, 50 mM PNPP, 90 minutes at 37° C., pH 7.4. As for the experimental part:
Inhibition of phosphatase activity of cell lysate by cyclic phosphates was assayed in 1.0 ml of 50 mM Tris-HCl buffer, pH 7.4, containing 50 mM p-nitrophenyl phosphate, PNPP, as a substrate. Reaction was initiated by the addition of crude cell lysate (100 μg/ml final protein concentration) and terminated after 90 minutes at 37° C. by an addition of 50 μl of 1M NaOH. […] Assays were conducted under the same conditions as above in the presence of 50 μM cyclic phosphate. The enzyme activity in the absence of inhibitor was taken as 100% activity.

Data set [3] can be described thus: Stability of cyclic phosphates in PBS / aqueous solution (TLC). In kind it is physicochemical. The following applies: 10 mg/ml in PBS, 37°, up to 24 hours.
Procedure: These possibilities were tested with the 4 cyclic phosphates (1,2 cGP, 1,3 cGP, 1,2 cPP and 1,3 cPPP (see Appendix A) in either aqueous solution or in cell lysates of CHO or NIH-3T3 cells (see Materials and Methods). 10 mg/ml cyclic phosphate in 1 ml of either PBS or PBS mixed with cell lysate (0.1 mg/ml protein) and incubated at 37° for up to 24 hours. Samples were tested at different times by thin layer chromatography on Silica gel 60 with n-propanol, concentrated ammonia, H2O (6:3:1 v/v/v). The Rr values for all 4 cyclic phosphates was in the range of 0.45-0.55 while α-GP and β-GP had Rf=0.14-0.16. This distinct difference allowed the qualitative detection of hydrolysis of the cyclic phosphate.
A further data set deals with CHO cells. Put plainly: Uptake of 32P labeled 1,3-cPP by CHO cells. In kind it is cell-based, Chinese hamster. Conditions: intact CHO cells, increasing amounts of unlabeled compound. As for the experimental part: After 2 washings with PBS the cells were disintegrated in 1 M NaOH and radioactivity was scored with a β counter. The insert presents the magnified uptake profile for short incubations (up to 2 minutes) where the intercept (0 time incubation) corresponded to approximately 3×10^6 molecules per cell, while at equilibrium (above 2 hours incubation) incorporation corresponded to approximately 2×10^8 molecules per cell.

The subject of another data set is perforated CHO cells. Put plainly: Intracellular binding in perforated CHO cells (displacement of 1,3-cP32P). More on the design: species or system Chinese hamster. The following applies: 20 μM 1,3-cP32P, 5 minutes at 4° C., increasing amounts of competitor (FIG. 9). On the procedure:
Radioactivity was scored after 2 washings with PBS at 4° C. as above. […] In this set of experiments the number of displaceable (i.e. specifically bound) ligands was estimated to be in the range of 10^7-10^8 per cell.

Data set [4] has as its system estrogen receptor (ER) in human ERmod T47D cells. Put plainly: Estrogen receptor expression in T47D cells (immunostaining, score 0 to 4). In kind it is cell-based. The following applies: 1 μM, 7 days of incubation (FIG. 11). As for the experimental part:
Tumor cells were incubated for 7 days in the absence or presence of 1 μM of 1,3 cGP. On each of the noted days, cells were harvested by trypsinization, washed and fixed by dryng in air. The preparations were then peroxidased and protein blocked. Following this, the cells were labeled with first antibody (mouse-anti-human ER) for 30 mins. at room temperature (RT). After washing, cells were incubated with biotinylated second antibody for 10 min at RT. After washing, the cells were incubated with streptavidin conjugated to horse radish peroxidase and color reaction with the DAB reagent was performed. Background staining was done with hematoxylin (mayer) and the fixation process was completed with water, alcohol and finally xylene immersions. The slides were covered, sealed and examined by a pathologist in a blind fashion. Expression of the ER was scored on a scale of 0 to 4 pulses, where 4 pulses is the highest score.

Data set [5] can be described thus: Stability of cyclic phosphates in cell lysates (TLC). Conditions: 10 mg/ml in PBS mixed with CHO or NIH-3T3 cell lysate (0.1 mg/ml protein), 37°, up to 24 hours.
Source text: This distinct difference allowed the qualitative detection of hydrolysis of the cyclic phosphate.
In data set [6] the test system is intracellular proteins of target cells (CHO and NIH-3T3 cells). In words: Phosphorylation of intracellular proteins of target cells (general statements). The format is cell-based. On the procedure:
In accordance with the invention, the phosphorylating activity of the CGs may be measured by any of the methods known in the art. Generally, following incubation of the CG with the target cells, the cells are lysed, the protein concentration in each sample is determined and the level of phosphorylation of the proteins is determined using known methods and suitable and available polyclonal or monoclonal antibodies. Typically, phosphorylation occurs on the tyrosine residues of the protein and such phosphorylation is determined using either polyclonal or monoclonal anti phosphotyrosine antibodies (such as those described below in the Examples). However, in some cases, phosphorylation occurs on the threonine or serine components of the proteins in which case polyclonal or monoclonal anti phosphothreonine or anti phosphoserine antibodies may be used.
(§4) The cyclic phosphates 1,3 cGP, 1,3 cPP, 1,2 cGP, 1,2 cPP, P-1,3 cGP and P-1,3 cPP and the controls αGP and βGP were dissolved in HBSS, or methanol to form stocks of 1 mM or 10 mM. […] The protein concentration in each sample, as evaluated by the Bradford assay, was in the range of 1-1.5 mg/ml. […] Bound antibodies were detected by horseradish peroxidase-conjugated anti-rabbit antibodies (Transduction Laboratories, Lexington Ky.) after 2 hours incubation at room temperature, using the conventional ECL detection method. […]

The subject of data set [7] is tyrosine phosphorylated proteins in CHO cells. In words: Tyrosine phosphorylation in CHO cells (Western blot with anti-phosphotyrosine antibodies). The following applies: CHO cells, 5 μM or 10 μM, 37° C., 1, 3 or 5 mins, monoclonal antibodies; bands about 35, 60-70, 120 and 38 kD (FIG. 4). The format is cell-based, Chinese hamster. As for the experimental part:
Chinese hamster ovary (CHO) cells (Puck, 1985; Gottesman, 1987) and NIH-3T3 cells (NIH), were used in the following experiments. CHO cells were grown at 37° C. in a humidified 5% CO2 atmosphere in 60×15 mm Petri dishes (Falcon) containing F12 medium supplemented with 10% fetal calf serum (FCS) and 2 mM glutamine. When reaching near confluence, the cells were placed under overnight starvation by replacing the medium to F12+2 mM glutamine with 0.1% FCS. The stimulation experiments were performed with cells which were under starvation for 12-18 hours.
as §4, with “mM. They were diluted into the cell culture medium to a final concentration of up to 20 μM. At the assigned stimulation time (0.5-20 min.) the medium was aspirated under vacuum and the cells were washed 3 times with cold (4° C.) phosphate buffered saline (PBS).” for “mM.”
(Immunoblotting shows a protein as a band on a membrane.)

The subject of the next data set is insulin receptor. Put plainly: Tyrosine phosphorylation of the insulin receptor in CHO-T cells. In kind it is cell-based. Conditions: 20 mins. On the procedure: Group 4: 0.1 μM 1,3, cPP only.
Tyrosine phosphorylation was determined using anti-phosphotyrosine antibody (as described above).

As to `O=P1(O)OCC(O)CO1` (stereo not drawn) [1,3 cGP(E)], the “stimulation of 35-40 kD protein kinase (P42 MAPK, ERK 2)” value in [1] is on record as “activated”. In addition, in the data set on Raf1/MAPK cascade, the “activation of the Raf1/MAPK cascade” value is at most 5 fold. Moreover, in [2], the “effect on the JNK pathway” value was “unaffected”. For the same compound, the “inhibition of the lysate phosphatases (in words)” value with cell lysate phosphatases was “limited inhibition”.
As for `O=P1(O)OCC(O)CO1` (stereo not drawn) [1,3 cGP, 1,3 cyclic glycerophosphate], the “hydrolysis to the linear form in PBS” value in data set [3] is reported as “No hydrolysis”. Besides, the “inhibition of cell lysate phosphatase activity” value in the data set with cell lysate phosphatases was “approximately 10%”. The “effect of unlabeled competitor on the uptake profile of 1,3-cP32P” value in the data set on CHO cells is recorded as “remained essentially unaltered”. In the data set with perforated CHO cells, the “displacement of 1,3-cP32P in perforated CHO cells” value is recorded as “clear binding competition”. Also, the “level of expression of estrogen receptor (ER) versus growth medium alone” value in data set [4] is “increases”; in [4] (listed as 1,3, cGP), “significantly higher”. Also, in [5], the “hydrolysis to the linear form by cell lysate” value (from here on “hydrolysis … by cell lysate”) is “No hydrolysis”.
For `O=P(O)(O)OC(CO)CO` [βGP, β-Glycerophosphate], the “level of phosphorylation in intracellular proteins after extracellular application” value in [6] is “lack this activity”.
`O=P(O)(O)OCC(O)CO` (stereo in doubt) [αGP, L-α-glycerophosphate, reference compound]: the “displacement of 1,3-cP32P in perforated CHO cells” value in the data set with perforated CHO cells is on record as “ineffective”. For the same compound, in data set [6], the “level of phosphorylation in intracellular proteins after extracellular application” value is given as “lack this activity”.
Take `CC1COP(=O)(O)O1` (stereo not drawn) [1,2 cPP, 1,2 cyclic propanediol phosphate]: the “kinetics of tyrosine phosphorylation” value in [7] is “enhanced tyrosine phosphorylation”. The “hydrolysis to the linear form in PBS” value in data set [3] is listed as “No hydrolysis”. In addition, the “hydrolysis … by cell lysate” value in [5] is listed as “No hydrolysis”.
For `O=P1(O)OCC(CO)O1` (stereo not drawn) [1,2 cGP, 1,2 cyclic glycerophosphate], the “hydrolysis to the linear form in PBS” value in [3] is reported as “No hydrolysis”. Also, in data set [5], the “hydrolysis … by cell lysate” value is given as “No hydrolysis”.
Take “insulin: hormone; binding to its receptor results in tyrosine phosphorylation of 117 kD and 200 kD receptor proteins”: the entries for the “phosphorylation of the insulin receptors” value in the data set with insulin receptor (0.1 nM insulin) and in the data set with insulin receptor (1 nM insulin) were “partial phosphorylation” and “maximal phosphorylation”, respectively.

The record behind these values is patent US6872712B1, “Cyclic glycerophosphates and analogs thereof” (Yeda Research and Development Co. Ltd., priority 1999, dated 2005).
